# From patent US6605424B1, “Method of detecting inhibitors of agonist-specific desensitization” (Duke University, priority 1989, dated 2003)
# Several values for one entry are separate records, joined by “and”; a condition that tells them apart may be missing. Equal entries are not always repeated. Residues, ends and D or L forms follow the SMILES beside them. No end group written: not given here.
# What was measured:
# βAR kinase [1] = biological target: T1, βAR kinase (Bos taurus, UniProt P21146); experiment: Phosphorylation of rhodopsin (urea-treated rod outer segments) by βAR kinase; type: biochemical, bovine; conditions: for inhibition of βAR kinase: polycations, FIG. 3; for Hill coefficient of inhibition: data of FIG. 1
# T1 construct: βAR kinase was purified from bovine cerebral cortex; from tissue; host or cells: bovine cerebral cortex
# T1 sequence (P21146 1-689): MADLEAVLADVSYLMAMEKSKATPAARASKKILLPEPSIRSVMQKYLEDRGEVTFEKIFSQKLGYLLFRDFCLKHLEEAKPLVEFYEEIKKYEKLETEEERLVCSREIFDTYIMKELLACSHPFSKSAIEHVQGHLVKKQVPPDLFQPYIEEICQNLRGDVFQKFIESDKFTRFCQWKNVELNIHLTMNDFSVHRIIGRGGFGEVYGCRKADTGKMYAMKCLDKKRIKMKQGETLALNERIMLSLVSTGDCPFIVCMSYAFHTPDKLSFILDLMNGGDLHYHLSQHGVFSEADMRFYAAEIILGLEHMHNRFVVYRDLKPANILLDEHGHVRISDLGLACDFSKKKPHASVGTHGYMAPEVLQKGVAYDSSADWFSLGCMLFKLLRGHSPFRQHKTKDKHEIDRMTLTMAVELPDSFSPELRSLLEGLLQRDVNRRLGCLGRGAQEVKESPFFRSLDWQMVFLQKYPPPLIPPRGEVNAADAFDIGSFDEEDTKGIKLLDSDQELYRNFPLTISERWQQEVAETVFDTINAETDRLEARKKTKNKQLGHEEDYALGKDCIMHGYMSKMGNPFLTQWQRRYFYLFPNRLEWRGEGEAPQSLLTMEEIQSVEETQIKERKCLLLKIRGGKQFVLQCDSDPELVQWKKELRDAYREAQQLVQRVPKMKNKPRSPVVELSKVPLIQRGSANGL
# Description: βAR kinase was purified from bovine cerebral cortex by modification of procedure of Benovic et al (J. Biol. Chem. (1987) 262:9026-9032). Briefly, 250 g of bovine cerebral cortex were homogenized with a Brinkmann tissue disrupter and centrifuged (40,000×g, 30 min). The supernatant was then precipitated with 13-26% ammonium sulfate. This material was initially chromatographed on a Ultrogel AcA34 column equilibrated with 5 mM Tris-HCl, pH 7.5, 2 mM EDTA, 10 μg/ml leupeptin, 5 μg/ml pepstatin, 10 μg/ml benzamidine, 0.2 mM phenylmethylsulfonyl fluoride (buffer A). The peak activity was diluted with an equal volume of buffer A containing 0.04% Triton X-100 before being applied to a DEAE-Sephacel column. Elution was accomplished with a 0-80 mM NaCl gradient in buffer A containing 0.02% Triton X-100. The peak activity was then applied to a CM-Fractogel column and eluted with a 0-100 mM NaCl gradient in buffer A containing 0.02% Triton X-100. The purified kinase is stable at 4° C. for several months. For these studies the βAR kinase preparations were >75% pure.
# Rod outer segments were prepared from bovine retinas by stepwise sucrose gradient centrifugation (Wilden et al Biochemistry (1982) 21:3014-3022). Rhodopsin kinase-free rod outer segments were prepared by treatment with 5 M urea (Shichi et al J. Biol. Chem. (1978) 253:7040-7046) and consisted of ˜95% rhodopsin, as assessed by Coomassie Blue staining of sodium dodecyl sulfate-polyacrylamide gels.
# Urea-treated rod outer segments were phosphorylated with βAR kinase as follows. Urea-treated rod outer segments (˜4 μg of rhodopsin) were incubated with βAR kinase (˜0.1 μg) for 10-15 min at 30° C. in the presence of 40 mM Tris-HCl, pH 7.4, 10 mM NaCl, 5 mM MgCl2, 1.5 mM EDTA, and 65 μM ATP (˜1 cpm/fmol) (total reaction volume was 40 μl). Reactions were stopped by the addition of 40 μl of sodium dodecyl sulfate sample buffer (see below) followed by sodium dodecyl sulfate-polyacrylamide gel electrophoresis. After autoradiography, the phosphorylated rhodopsin bands were excised and counted.
# Sodium dodecyl sulfate-polyacrylamide gel electrophoresis was performed by the method of Laemmli (Nature (1970) 227:680-685) using 10% homogeneous polyacrylamide slab gels. Sample buffer contained 8% sodium dodecyl sulfate, 10% glycerol, 5% 3-mercaptoethanol, 25 mM Tris-HCl, pH 6.5, and 0.003% bromphenol blue. After electrophoresis, gels were dried with a Bio-Rad gel dryer prior to autoradiography.
# βAR kinase [2] = biological target: T1, βAR kinase; experiment: Inhibition of β2AR phosphorylation by βAR kinase by synthetic peptides (Example III); type: biochemical, bovine; conditions: for inhibition of β2AR phosphorylation: tested at ˜0.5 mM
# Description: FIG. 13. Inhibition of β2AR phosphorylation by synthetic peptides. Reconstituted β2AR (˜0.4 pmol) was incubated for 30 min at 30° with purified βAR kinase (˜30 ng) in the presence of 50 mM Tris-HCl, pH 7.5, 2 mM EDTA, 10 mM NaCl, 5 mM MgCl2, 5 mM sodium phosphate, 50 μM (−)-isoproterenol and 0.10 mM [γ^32P]ATP (2.0 cpm/fmol). Synthetic β2AR peptides were varied from 0 to 1 mM and included CI (Δ), CII (▴), CIII-2 (◯) and CT-1 (●). Reactions were stopped by the addition of […]. ^32P-labeled receptor was determined by cutting and counting the dried gel following autoradiography.
# The β2-adrenergic receptor from hamster lung was purified to apparent homogeneity by sequential affinity and high performance liquid chromatography as described (Benovic et al (1984) Biochemistry 23:4510-4518). The purified receptor was reinserted into phosphatidylcholine vesicles as previously described (Cerione et al (1983) Nature 306:562-566). The protein-lipid pellets were resuspended in 20 mM Tris-HCl, pH 7.2, 2 mM EDTA and used as a substrate for the βAR kinase.
# βAR kinase was purified from bovine cerebral cortex by modification of a previously described procedure (Benovic et al (1987) J. Biol. Chem. 262:9026-9032). Briefly, 250 g of bovine cortex was homogenized and the resulting high speed supernatant fraction was precipitated with 13-26% ammonium sulfate. This material was initially chromatographed on an Ultrogel AcA34 column equilibrated with 5 mM Tris-HCl, pH 7.5, 2 mM EDTA, 5 μg/ml leupeptin, 5 μg/ml pepstatin, 15 μg/ml benzamidine, 0.2 mM phenylmethyl sulfonyl fluoride (buffer A). The peak activity was diluted 1:1 with buffer A containing 0.02% triton X-100 and applied to a DEAE Sephacel column. Elution was accomplished with a 0-80 mM NaCl gradient in buffer A containing triton X-100. The peak activity was then applied directly to a CM Fractogel column and eluted with a 0-100 mM NaCl gradient in buffer A containing triton X-100. The purified kinase was stored at 4° C.
# The inhibition of substrate phosphorylation by βAR kinase in the presence of synthetic peptides was assayed as follows. Reconstituted βAR (0.2-1 pmol/inclubation) was incubated with βAR kinase (10-30 ng) in a buffer containing 50 mM Tris-HCl, pH 7.5, 2 mM EDTA, 10 mM NaCl, 5 mM MgCl2, 5 mM sodium phosphate, 50 μM (−)-isoproterenol, 0.10 mM [γ-^32P]ATP (1-3 cpm/fmol) at 30° C. for 30 min. Synthetic β2AR peptides were varied in concentration from 0 to 2 mM. Reactions were quenched by the addition of SDS sample buffer followed by gel electrophoresis. In some experiments urea treated rod outer segments (Wilden et al (1982) Biochemistry 21:3014-3022; Shichi et al (1978) J. Biol. Chem. 253:7040-7046) were used as the substrate for βAR kinase. To further define the specificity of the peptide inhibition, phosvitin, casein (see Example I) and the synthetic peptides CT-2 and CT-3 were used as substrates for βAR kinase.
# SDS polyacrylamide gel electrophoresis was performed by the method of Laemmli (Nature (1970) 227:[…]) using 10 or 15% homogeneous slab gels. SDS sample buffer contained 8% SDS, 10% glycerol, 5% β-mercaptoethanol, 25 mM Tris-HCl, pH 6.5 and 0.003% bromphenol blue. SDS urea polyacrylamide gel electrophoresis was carried out using 6.5 M urea, 0.1% SDS, 100 mM H3PO4, pH 6.8 with Tris-HCl and 9% acrylamide (Swank et al (1971) Anal. Biochem. 39:462). SDS urea sample buffer contained 1% SDS, 8M urea, 10 mM H3PO4, pH 6.8 with Tris-HCl, 1% β-mercaptoethanol and 0.003% bromphenol blue.
# [3] = read-out: IC50 (concentration of compound which gave 50% inhibition of βAR kinase), rhodopsin as substrate
# [4] = rhodopsin as substrate, mean ± S.E.
# [5] = IC50 (concentration of compound which gave 50% inhibition of βAR kinase), rhodopsin as substrate
# [6] = IC50 (concentration of compound which gave 50% inhibition of βAR kinase), rhodopsin as substrate, mean ± S.E.
# [7] = β2AR as substrate, read-out: IC50 (μM), first intracellular loop peptides as inhibitors of βAR kinase
# [8] = hamster β2AR peptides, ND = no significant inhibition at ˜500 μM, read-out: IC50 (μM), inhibition of β2AR phosphorylation by βAR kinase
compound,measurement,setting,value
"O=C(O)C(COP(=O)(O)O)OP(=O)(O)O (centres unmarked) [2,3-Diphosphoglycerate, 2,3-diphosphoglycerate]",IC50,βAR kinase [1]; [3],1100 µM
same,concentration range of inhibition,βAR kinase [1]; rhodopsin as substrate,millimolar range
same,IC50 (concentration of compound which gave 50% inhibition of βAR kinase),βAR kinase [1]; [4],838 µg/mL
CC[C@H](C)[C@H](NC(=O)[C@H](C)NC(=O)[C@H](CCCCN)NC(=O)[C@H](CCC(N)=O)NC(=O)[C@H](Cc1c[nH]cn1)NC(=O)[C@@H](N)[C@@H](C)O)C(=O)N[C@@H](CC(=O)O)C(=O)N[C@@H](CS)C(=O)N[C@@H](Cc1ccc(O)cc1)C(=O)N[C@@H](Cc1c[nH]cn1)C(=O)N[C@@H](CCCCN)C(=O)N[C@@H](CCC(=O)O)C(=O)N[C@H](C(=O)N[C@@H](CS)C(=O)O)[C@@H](C)O [EII (177-190)] (H-THQKAIDCYHKETC-OH; N-terminus and C-terminus assumed),inhibition of β2AR phosphorylation,βAR kinase [2],do not inhibit
"O=S(=O)(O)NC1C(O)OC(COS(=O)(=O)O)C(O)C1O (centres unmarked) [Glucosamine 2,6-disulfate, glucosamine 2,6-disulfate]",IC50,βAR kinase [1]; [3],7300 µM
same,concentration range of inhibition,βAR kinase [1]; rhodopsin as substrate,millimolar range
same,IC50 (concentration of compound which gave 50% inhibition of βAR kinase),βAR kinase [1]; [4],2800 µg/mL
"O=P(O)(O)O[C@H]1[C@H](OP(=O)(O)O)[C@@H](OP(=O)(O)O)[C@H](OP(=O)(O)O)[C@@H](OP(=O)(O)O)[C@H]1OP(=O)(O)O [Inositol hexaphosphate, inositol hexaphosphate]",IC50,βAR kinase [1]; [5],3600 µM
same,IC50,βAR kinase [1]; [6],5040 µM
"O=S(=O)(O)OC1C(OS(=O)(=O)O)C(OS(=O)(=O)O)C(OS(=O)(=O)O)C(OS(=O)(=O)O)C1OS(=O)(=O)O (centres unmarked) [Inositol hexasulfate, inositol hexasulfate]",IC50,βAR kinase [1]; [5],13.5 µM
same,IC50,βAR kinase [1]; [6],18.2 µM
same,times more potent than inositol hexaphosphate,βAR kinase [1]; rhodopsin as substrate,~270 times
"Cc1ncc(COP(=O)(O)O)c(C=O)c1O [Pyridoxal phosphate, pyridoxal phosphate]",IC50,βAR kinase [1]; [5],900 µM
same,IC50,βAR kinase [1]; [6],898 µM
same,concentration range of inhibition,βAR kinase [1]; rhodopsin as substrate,millimolar range
"NCCCNCCCCNCCCN [Spermine, spermine]",inhibition of βAR kinase,βAR kinase [1],weak inhibitors
NCCCCNCCCN [spermidine],inhibition of βAR kinase,βAR kinase [1],weak inhibitors
"AIAAFEALQTVTNYF [β2AR (57-71, K → A, R → A)]",IC50,βAR kinase [2]; [7],88 µM
"AIAKFERAQTVTAYF [β2AR (57-71, L → A, N → A)]",IC50,βAR kinase [2]; [7],43 µM
"AIAKFQRLQTVTNYF [β2AR (57-71, E → Q), AIAKFORLQTVTNYF]",IC50,βAR kinase [2]; [7],280 µM
AIAKTPRLQTLTNLF [β1AR],IC50,βAR kinase [2]; [7],700 µM
AVFTSRALKAPQNLF [α2AR],IC50,βAR kinase [2]; [7],> 1000 µM
"KFERLQT [β2AR (60-66), KFERLQT]",IC50,βAR kinase [2]; [7],2600 µM
KMWNFGNFWC [EI (97-106)],IC50,βAR kinase [2]; [8],300 µM
SHVPDHDVTEERDEAW [NT (17-32)],inhibition of β2AR phosphorylation,βAR kinase [2],do not inhibit
TAIAKFERLQTVTNYFITS [β2AR (56-74)],IC50,βAR kinase [2]; [8],~40 µM and 40 µM
same,IC50,βAR kinase [2]; [7],40 µM
VTVQHKKLRTPLNYI [Rhodopsin],IC50,βAR kinase [2]; [7],> 1000 µM
chondroitin sulfate B,IC50 (concentration of compound which gave 50% inhibition of βAR kinase),βAR kinase [1]; [4],25 µg/mL
chondroitin sulfate C,IC50 (concentration of compound which gave 50% inhibition of βAR kinase),βAR kinase [1]; [4],6 µg/mL
de-N-sulfated heparin,Hill coefficient of inhibition,βAR kinase [1],~2
same,fold weaker than heparin,βAR kinase [1]; rhodopsin as substrate,~8 fold
same,IC50 (concentration of compound which gave 50% inhibition of βAR kinase),βAR kinase [1]; [4],6.0 ± 2.4 µg/mL
dextran sulfate,Hill coefficient of inhibition,βAR kinase [1],~2
same,IC50,βAR kinase [1]; [3],0.15 µM
same,IC50 (concentration of compound which gave 50% inhibition of βAR kinase),βAR kinase [1]; [4],0.76 ± 0.21 µg/mL
heparan sulfate,IC50 (concentration of compound which gave 50% inhibition of βAR kinase),βAR kinase [1]; [4],1.8 µg/mL
polyaspartic acid,IC50,βAR kinase [1]; [3],1.3 µM
same,IC50 (concentration of compound which gave 50% inhibition of βAR kinase),βAR kinase [1]; [4],14 µg/mL
polyglutamic acid,IC50,βAR kinase [1]; [3],2 µM
same,IC50 (concentration of compound which gave 50% inhibition of βAR kinase),βAR kinase [1]; [4],27 ± 2 µg/mL
